Literature values, collected in PMC6318274, “Lattice engineering enables definition of molecular features allowing for potent small-molecule inhibition of HIV-1 entry” (Nature Communications, 2019).
Read-outs that look alike come from different tables or passages of the source.

Tested on: HIV-1 Env-pseudoviruses (208-strain panel)
Conditions: cited from earlier work; for IC50: read-out: IC50; for % Neutralized / Total Neutralized: 208 viruses

For COc1cnc(-n2cnc(C)n2)c2[nH]cc(C(=O)C(=O)N3CCN(C(=O)c4ccccc4)CC3)c12 [BMS-626529], the IC50 (CNE20, clade BC) is listed as 339 nM, the IC50 (CNE21, clade BC) is listed as 2 nM and the IC50 (CNE30, clade C) is listed as 1 nM. The IC50 (CNE31, clade C) was 23 nM, the IC50 (CNE40, clade BC) was 38 nM and the IC50 (CNE53, clade C) was 0.5 nM. For the same molecule, the IC50 (CNE55, clade AE) was 4770 nM, the IC50 (CNE56, clade AE) was > 20000 nM and the IC50 (CNE57, clade B) was 2 nM. The IC50 (CNE58, clade C) was 4 nM, the IC50 (CNE59, clade AE) was > 20000 nM and the IC50 (Ce1176.A3, clade C) was 10 nM. The IC50 (DJ263.8, clade AG) was 11 nM, the IC50 (DU123.06, clade C) was 5 nM and the IC50 (DU151.02, clade C) was 6 nM. For the same molecule, the IC50 (DU156.12, clade C) was 3 nM, the IC50 (DU172.17, clade C) was 8 nM and the IC50 (DU422.01, clade C) was 8 nM. The IC50 (HO86.8, clade B) was 20 nM, the IC50 (HT593.1, clade B) was 0.9 nM and the IC50 (HXB2.DG, clade B) was 1 nM. For the same molecule, the “% Neutralized” value (IC50 <0.01ug/ml) was 46%, the “Total Neutralized” value (IC50 <0.01ug/ml) was 95 and the “% Neutralized” value (IC50 <0.1ug/ml) was 71%. The “Total Neutralized” value (IC50 <0.1ug/ml) was 147, the “% Neutralized” value (IC50 <1.0ug/ml) was 80% and the “Total Neutralized” value (IC50 <1.0ug/ml) was 167. The “% Neutralized” value (IC50 <10ug/ml) was 89%, the “Total Neutralized” value (IC50 <10ug/ml) was 185 and the “% Neutralized” value (IC50 <50ug/ml) was 91%. For the same molecule, the “Total Neutralized” value (IC50 <50ug/ml) was 189, the IC50 (JRCSF.JB, clade B) was 0.3 nM and the IC50 (JRFL.JB, clade B) was 0.4 nM. For the same molecule, the IC50 (KER2008.12, clade A) was 1870 nM, the IC50 (KER2018.11, clade A) was 8 nM and the IC50 (KNH1209.18, clade A) was 29 nM. The IC50 (M02138, clade AE) was 2810 nM, the IC50 (MB201.A1, clade A) was 628 nM and the IC50 (MB539.2B7, clade A) was 191 nM. For the same molecule, the IC50 (MI369.A5, clade A) was 13 nM, the IC50 (MN.3, clade B) was 10 nM and the IC50 (MS208.A1, clade A) was 11 nM. The IC50 (MW965.26, clade C) was 433 nM, the IC50 (NKU3006.ec1, clade D) was 5 nM and the IC50 (P0402.c2.11, clade G) was 32 nM. For the same molecule, the IC50 (P1981.C5.3, clade G) was 209 nM, the IC50 (PVO.04, clade B) was 3 nM and the IC50 (Q23.17, clade A) was 12 nM. For the same molecule, the IC50 (Q168.a2, clade AD) was 115 nM, the IC50 (Q259.17, clade A) was 1230 nM and the IC50 (Q461.e2, clade AD) was 12 nM. For the same molecule, the IC50 (Q769.d22, clade A) was 123 nM, the IC50 (Q769.h5, clade A) was 427 nM and the IC50 (Q842.d12, clade A) was 17 nM. The IC50 (QH209.14M.A2, clade A) was 610 nM, the IC50 (QH0515.01, clade B) was 12 nM and the IC50 (QH0692.42, clade B) was 9 nM. For the same molecule, the IC50 (R1166.c1, clade AE) was > 20000 nM, the IC50 (R2184.c4, clade AE) was > 20000 nM and the IC50 (R3265.c6, clade AE) was 13000 nM. The IC50 (REJO.67, clade B) was 1040 nM, the IC50 (RHPA.7, clade B) was 4 nM and the IC50 (RW020.2, clade A) was 71 nM. The IC50 (SC422.8, clade B) was 2 nM, the IC50 (SF162.LS, clade B) was 1 nM and the IC50 (SO18.18, clade C) was 3 nM. The IC50 (SS1196.01, clade B) was 7050 nM, the IC50 (T33-7, clade AG) was 2810 nM and the IC50 (T250-4, clade AG) was 15 nM. The IC50 (T251-18, clade AG) was 19 nM, the IC50 (T253-11, clade AG) was 1 nM and the IC50 (T255-34, clade AG) was 82 nM. For the same molecule, the IC50 (T257-31, clade AG) was 57 nM, the IC50 (T266-60, clade AG) was 1370 nM and the IC50 (T278-50, clade AG) was 0.2 nM. For the same molecule, the IC50 (T280-5, clade AG) was 10 nM, the IC50 (TH023.6, clade AE) was > 20000 nM and the IC50 (TH966.8, clade AE) was > 20000 nM. The IC50 (TH976.17, clade AE) was > 20000 nM, the IC50 (THRO.18, clade B) was 3 nM and the IC50 (TRJO.58, clade B) was 1 nM. The IC50 (TRO.11, clade B) was 1080 nM, the IC50 (TV1.29, clade C) was 67 nM and the IC50 (TZA125.17, clade C) was 14 nM. For the same molecule, the IC50 (TZBD.02, clade C) was 5 nM, the IC50 (UG021.16, clade D) was 13 nM and the IC50 (UG024.2, clade D) was 566 nM. For the same molecule, the IC50 (UG037.8, clade A) was 1010 nM, the IC50 (WITO.33, clade B) was 5 nM and the IC50 (X1254.c3, clade G) was 43 nM. For the same molecule, the IC50 (X1632.S2.B10, clade G) was 54 nM, the IC50 (X2088.c9, clade G) was 3 nM and the IC50 (X2131.C1.B5, clade G) was 267 nM. For the same molecule, the IC50 (X2278.C2.B6, clade B) was 1260 nM, the IC50 (YU2.DG, clade B) was 0.9 nM and the IC50 (ZA012.29, clade C) was 7 nM. The IC50 (ZM53.12, clade C) was 10 nM, the IC50 (ZM55.28a, clade C) was 6 nM and the IC50 (ZM106.9, clade C) was 17 nM. For the same molecule, the IC50 (ZM109.4, clade C) was 1 nM, the IC50 (ZM135.10a, clade C) was 889 nM and the IC50 (ZM176.66, clade C) was 18 nM. For the same molecule, the IC50 (ZM197.7, clade C) was 6 nM, the IC50 (ZM214.15, clade C) was 2 nM and the IC50 (ZM215.8, clade C) was 2 nM. The IC50 (ZM233.6, clade C) was 0.8 nM, the IC50 (ZM249.1, clade C) was 18 nM and the IC50 ([…], clade C) was 2 nM. For the same molecule, the IC50 ([…], clade G) was 120 nM.
